# Laboratory results from US8354237B2, “Anti-methylation-controlled j protein antibodies and uses thereof” (University of Vermont and State Agriculture College, priority 2007, dated 2013).
# Peptide text beside a SMILES is read from it. * marks the point of attachment. Cbz = O=C(OCc1ccccc1)*
# Assays:
# Format in all cases: cell-based, human
# MCF7 cells [1] = test: Cell viability assay (MTT assay); conditions: for response of cells to drug (percent viability, MTT assay): MCF7 cells
# Protocol: (§1) MCF7 and MCF7/ADR cells were a kind gift from Dr. Ken Cowan (National Cancer Institute, Bethesda, Md.). MCF7, MCF7/ADR, MCF7/siMCJ-1B MCF7/siMCJ-3B, […], MD22, MES-SA and MES-Dx5 cells were maintained in RPMI-1640 (Life technologies, Inc., Gaithersburg, Md.) containing 5% FBS (Hyclone, Logan, Utah), Penicillin/streptomycin and 1-glutamine (Gibco). 293T cells were cultured in DMEM-F12 medium (Life technologies, Inc.) supplemented with 10% FBS (Hyclone, Logan, Utah).
# (§2) The dose response of cell line to different drugs was determined by MTT assay as described previously (Conze et al., Cancer Res 61, 8851-8858, 2001; Sladowski et al., J Immunol Methods 157, 203-207, 1993). Different concentrations of drug were used, ranging from 0-100 μM for Doxorubicin, 0-30 μM for Paclitaxel and 0-30 μM for 5-Flurouracil. LD50 values were calculated by non-linear regression and plotted graphically as percentage of viable cells.
# c-Jun = c-Jun expression by Western blot in MCF7 cells treated with proteasome inhibitor; conditions: MG132 5 μM, 4 h
# Protocol: Whole cell extracts were prepared in lysis buffer as previously described (Pedraza-Alva et al., J Biol Chem 276, 729-737, 2001). 40-100 μg of proteins were separated by electrophoresis and transferred on to a nitrocellulose membrane (Conze et al., Cancer Res 61, 8851-8858, 2001). Primary antibodies for Western blotting include anti-ABCB1 (JSB-1 clone) from (ALEXIS corporation Switzerland), rabbit polyclonal anti-MCJ, anti-HA, anti-c-Jun, from (Cell Signaling Technology, Inc) anti-actin and the secondary antibodies goat anti-mouse HRP, goat anti-rabbit HRP and donkey anti-goat HRP Ab from (Santa Cruz Biotechnology). LUMIGLO® chemiluminescent substrate system (KPL, Maryland) was used to visualize the proteins. Levels of actin were determined as loading control.
# It was determined whether the increased c-Jun DNA binding in siMCJ cells could be due to an upregulation of c-Jun protein levels. The levels of c-Jun by Western blot analysis were examined using whole cell lysates. Very low levels of c-Jun were detected in MCF7 cells, but high levels were present in MCF7/siMCJ cells (FIG. 8D). It has been previously reported that c-Jun levels can be regulated by ubiquitination and proteasome mediated degradation (Treier et al., Cell 78, 787-798, 1994). […]
# MCF7/ADR cells [2] = test: Cell viability assay (MTT assay)
# Protocol: as §1, §2
# MCF7/siMCJ-1B cells [3] = test: Cell viability assay (MTT assay)
# Protocol: as §1, §2
# MCF7/siMCJ-3B cells [4] = test: Cell viability assay (MTT assay)
# Protocol: as §1, §2
# MCF7 cells [5] = test: Analysis of drug internalization (flow cytometry, confocal microscopy)
# Protocol: (§3) MCF7, MCF7/ADR, MCF7/siMCJ-1B and MCF7/siMCJ-3B cells were treated with doxorubicin (0.3 or 3 μM) for 3 h at 37° C. Negative controls had no drug added. Cells were washed 3 times with PBS and trypsinised and doxorubicin fluorescence was examined by flow cytometry using a LSRII flow cytometer (BD Biosciences, Mass.). FLP3, 695/40 nm filter with 685 nm long pass was used to measure doxorubicin fluorescence. For MCF7/siMCJ cells, EGFP was detected in FLP1, 530/30 nm band-pass with 505 nm long pass. No overlap of two fluorescences could be detected. Confocal microscopy: MCF7, MCF7/ADR, MCF7/siMCJ-1B and -3B (3×10^4) cells were seeded on BD Biocoat coverslips (BD Biosciences, Bedford, Mass.) and treated with doxorubicin in the presence or absence of veraparnil (10 μM). After different periods of time (0, 2, 3 h) cells were washed with PBS and fixed in 3.7% paraformaldehyde to be examined by confocal microscopy. Since both, EGFP (present in MCF7/siMCJ cells) and doxorubicin are excited by 488 nm, the conventional multi track type of analysis could not be used. Instead, the Lambda Mode analysis in the Zeiss confocal microscope (Zeiss LSM 510 META Confocal Laser Scanning Imaging System, Carl Ziess Microimaging Inc, Thronwood, N.Y.) was used that allows a precise analysis of the emission spectrum for each fluorochrome (Chen and Simon, J Cell Biol 148, 863-870, 2000). The cells were excited at 488 nm and emission peaks were readily separated by this methodology with EGFP emission at 500 nm and doxorubicin at 600 nm (FIG. 10).
# MCF7/ADR cells [6] = test: as above; conditions: 0.3 and 3 μM, 3 h
# Protocol: as §3
# MCF7/siMCJ-1B cells [7] = test: as above; conditions: for effect on intracellular accumulation of doxorubicin: verapamil 10 μM
# Protocol: as §3
# MCF7/siMCJ-3B cells [8] = test: as above; conditions: 3 h; for intracellular accumulation of doxorubicin: flow cytometry
# Protocol: as §3
# MCJ = MCJ mRNA expression by RT-PCR in MCF7 cells cultured with IL-6; conditions: IL-6 50 ng/ml, 8 days (one week), RT-PCR and real-time RT-PCR
# Source text: Total RNA was isolated using ULTRASPEC® RNA isolation systems, as recommended by the manufacturer (Biotecx Laboratories, Inc, Houston, Tex.). The first strand cDNA was obtained by reverse transcription as described previously (Conze et al., Cancer Res 61, 8851-8858, 2001). cDNA was used to detect human […], HPRT, MCJ, ABCG2 and ABCC1 expression by conventional PCR or real-time RT-PCR. Previously described primers were used for the conventional RT-PCR amplification of ABCB1 (Noonan et al., Proc Natl Acad Sci USA 87, 7160-7164, 1990), HPRT (Conze et al., Cancer Res 61, 8851-8858, 2001), ABCC1 (Harbottle et al., Int J Cancer 92, 777-783, 2001), ABCG2 (Doyle and Ross, Oncogene 22, 7340-7358, 2003) and MCJ (Shridhar et al., Cancer Res 61, 4258-4265, 2001). For the real-time RT-PCR analysis, by TAQMAN® system (Applied Biosystems), an Assay on Demand Kit for human HPRT and ABCB1 (Sigma, Genosys) was used. For the detection of MCJ by real time RT-PCR, we used the following probe and primer set were used (Sigma, Genosys) (probe 5′-[…]-3; (SEQ ID NO:22) sense primer 5′-CAGAAAATGA GTAGGCGAGAAGC-3′ (SEQ ID NO:23) and anti-sense primer 5′-[…]-3′ (SEQ ID NO:24). HPRT was used as an endogenous control to normalize the mRNA values in each sample. The relative values were determined by the comparative CT analysis method. […]
compound,measurement,setting,value
"O=c1[nH]cc(F)c(=O)[nH]1 [5-FU, 5-fluorouracil]",dose-response compared between cell lines (MTT assay),"MCF7 cells [1]; MCF7, MCF7/ADR, MCF7/siMCJ-1B and -3B cells",comparable
CC(C)C[C@@H](C=O)NC(=O)[C@H](CC(C)C)NC(=O)[C@H](CC(C)C)NC(=O)OCc1ccccc1 [MG132] (Cbz-Leu-Leu-Leu-aldehyde),c-Jun levels compared with untreated MCF7 cells,c-Jun,Increased levels
COc1cccc2c1C(=O)c1c(O)c3c(c(O)c1C2=O)C[C@@](O)(C(=O)CO)C[C@@H]3O[C@H]1C[C@H](N)[C@H](O)[C@H](C)O1 [doxorubicin],"response of cells to drug (percent viability, MTT assay)",MCF7 cells [1],highly sensitive
same,"response of cells to drug (percent viability, MTT assay)",MCF7/ADR cells [2],highly resistant
same,"response of cells to drug (percent viability, MTT assay)",MCF7/siMCJ-1B cells [3],significantly more resistant
same,"response of cells to drug (percent viability, MTT assay)",MCF7/siMCJ-3B cells [4],significantly more resistant
same,doxorubicin fluorescence (intracellular accumulation),"MCF7 cells [5]; confocal microscopy, 1, 2 or 3 h",maximum level of intracellular accumulation was reached after 3 h
same,intracellular accumulation of doxorubicin,"MCF7 cells [5]; flow cytometry, 0.3 and 3 μM, 3 h",High levels
same,intracellular accumulation of doxorubicin,MCF7/ADR cells [6],no doxorubicin was observed
same,doxorubicin fluorescence (intracellular accumulation),"MCF7/siMCJ-1B cells [7]; confocal microscopy, 3 h",no doxorubicin fluorescence was observed
same,intracellular accumulation of doxorubicin,"MCF7/siMCJ-1B cells [7]; flow cytometry, 0.3 μM, 3 h",no intracellular accumulation
same,intracellular accumulation of doxorubicin,"MCF7/siMCJ-1B cells [7]; flow cytometry, 3 μM, 3 h",very low intracellular levels
same,doxorubicin fluorescence (intracellular accumulation),MCF7/siMCJ-3B cells [8]; confocal microscopy,no doxorubicin fluorescence was observed
same,intracellular accumulation of doxorubicin,MCF7/siMCJ-3B cells [8]; 0.3 μM,no intracellular accumulation
same,intracellular accumulation of doxorubicin,MCF7/siMCJ-3B cells [8]; 3 μM,very low intracellular levels
CC(=O)O[C@H]1C(=O)[C@@]2(C)[C@H]([C@H](OC(=O)c3ccccc3)[C@]3(O)C[C@H](OC(=O)[C@H](O)[C@@H](NC(=O)c4ccccc4)c4ccccc4)C(C)=C1C3(C)C)[C@]1(OC(C)=O)CO[C@@H]1C[C@@H]2O [paclitaxel],"response of cells to drug (percent viability, MTT assay)",MCF7 cells [1],highly sensitive
same,"response of cells to drug (percent viability, MTT assay)",MCF7/siMCJ-1B cells [3],highly resistant
same,"response of cells to drug (percent viability, MTT assay)",MCF7/siMCJ-3B cells [4],highly resistant
COc1ccc(CCN(C)CCCC(C#N)(c2ccc(OC)c(OC)c2)C(C)C)cc1OC (stereo not shown) [verapamil],effect on intracellular accumulation of doxorubicin,"MCF7 cells [5]; flow cytometry, verapamil 10 μM, doxorubicin 3 μM, 3 h",no effect
same,effect on intracellular accumulation of doxorubicin,"MCF7/siMCJ-1B cells [7]; confocal microscopy, doxorubicin 3 h",clear intracellular accumulation was observed
same,effect on intracellular accumulation of doxorubicin,"MCF7/siMCJ-1B cells [7]; flow cytometry, doxorubicin 3 μM, 3 h",allowed the intracellular accumulation of doxorubicin
IL-6: exogenous IL-6 added to MCF7 cell culture,MCJ mRNA levels compared with untreated MCF7 cells,MCJ,reduced levels
